Experimental data from patent US8623900B2, “Amino alcohol derivatives and their therapeutic activities” (Flamma S.p.A., priority 2009, dated 2014).

How the values were obtained:
rat = test: preliminary toxicological study in the rat; assay type: in vivo
[1] = carbonyl-quenching activity towards HNE in vitro (residual HNE by reverse-phase chromatography); assay type: biochemical; details: HNE 50 μM, compound 1 mM, phosphate buffer 10 mM, pH 7.4, 37° C.; percentage of HNE reacted after one, two and three hours
Procedure: The pharmacological activity of the compounds according to the invention was determined in vitro by evaluating their carbonyl-quenching activity towards 4-hydroxy nonenal ([…]), which is known for its involvement in numerous disorders.
The activity was evaluated one, two and three hours after incubation, determining the residual HNE content by reverse-phase chromatography as previously described by Aldini G. et al. [Biochem Biophys Res Commun. 2002 Nov. 15; 298(5):699-706]. The carbonyl-quenching activity is evaluated on the basis of the percentage of HNE reacted, compared with the HNE content in the absence of the molecule to be tested.

Question: For `NCCC(=O)N[C@H](CO)Cc1cnc[nH]1` [3-Amino-N-[(1S)-2-hydroxy-1-(1H-imidazol-5-yl-methyl)-ethyl]propanamide], which toxic effects (rat; IV, 3 consecutive doses 3, 10 and 30 mg/kg) is on record?
Answer: The toxic effects was “no toxic effects were observed”.

Question: What about the toxic effects (rat; intraperitoneal, single dose 100 mg/kg) of the same compound?
Answer: The toxic effects was “no toxic effects were observed”.

Question: What about the toxic effects (rat; per os (gavage), 100 mg/kg/day for 7 days) of the same compound?
Answer: The toxic effects was “no toxic effects were observed”.

Question: What about the “carbonyl-quenching activity relative to β-alanyl histidine (standard substance)” value [1] of the same compound?
Answer: The value was 1.66 times.
